This is an account of results in patent US20130243847A1, “ACTIVATED CREATININE AND PRECURSORS THEREOF AS ANTIBACTERIAL AGENTS, COMPOSITIONS AND PRODUCTS CONTAINING SUCH AGENTS AND USE THEREOF” (BOARD OF REGENTS OF THE UNIVERSITY OF NEBRASKA, priority 2010, published 2013).

Common to all, as to format: cell-based
For one experiment, the system named is S. aureus. Description: Disc diffusion assay of creatine esters (Example 6). As to conditions: approx. 50 μL anhydrous polyethylene glycol carrier with 28% by weight agent. Here is the method:
Four (4) different creatine esters were prepared according to the method of U.S. Pat. No. 6,897,334 to Vennerstrom. The esters thus prepared were activated in the manner described herein to impart antibacterial activity thereto. Four (4) test formulations were prepared, each including approximately 50 μL of an anhydrous polyethylene glycol carrier containing 28% by weight of a different creatine ester. Each formulation was added to a 6 mm disc and inverted onto a brain heart infusion agar plate that was previously spread with S. aureus at 10^5 organisms per mL. Plates were incubated at 37° C. overnight and the clear zones showing inhibition of bacterial growth were measured.
(In agar diffusion tests the substance spreads into inoculated agar from a disc or well.)

For a further experiment, the system named is Staphylococcus aureus. Description: Disc assay of creatinine activated with different acids (Example 1, FIG. 1). As to conditions: for antibacterial activity after acid activation (FIG. 1): 5 mg acidified creatinine in Eridex on 6 mm disc, pH 5.0-5.5, S. aureus 10^5 per mL; for antibacterial activity of acid in Eridex alone: without creatinine at pH 5.5. The procedure:
A 2 molar solution of anhydrous creatinine (Sigma-Aldrich Chemical Co. St. Louis, Mo.) was prepared in water (113 mg in 0.5 ml H2O) and adjusted to pH 5.0-5.5 with different acids. Twenty five microliters of each pH adjusted solution was added to 30 milligrams of a powdered carrier, Eridex™, (crystalline sugar alcohol) (Cargill Inc. Cedar Rapids, Iowa), and stirred into a thickened slurry. Approximately 50 microliters of each mixture, containing 5 mg of acidified creatinine, was applied to a 6 mm disc and inverted onto a brain heart infusion agar plate that was spread one hour prior with Staphylococcus aureus diluted to 10^5 organisms per milliliter. Plates were incubated at 37° C. overnight and the clear zones showing inhibition of bacterial growth were measured. Each sample was run in duplicate and reported as an average +/−1 mm of the two measurements. Creatinine HCl was used as an internal standard on each plate to provide uniformity from plate to plate (measurements varied <0.5 mm). Hydrochloride sig, a commercial creatinine HCl salt from Sigma-Aldrich, was used at pH 5.0 with no adjustment.

Experiment [1] has as its system Acinetobacter baumannii high level resistance (HLR). Description: Disc diffusion assay, CEE vs gentamicin. The following applies: A. baumannii HLR; 50 mg anhydrous topical cream with 28% by weight agent; gentamicin 10 μg disc. Here is the method:
(§1) This testing involved the use of 50 mg of an anhydrous topical cream containing the antibacterial agent of the invention in an amount of 28% by weight and 10 μg of gentamicin, impregnated into a standard commercially available disc (Remel, Lenoxa Kans.).

Experiment [2] concerns Candida albicans laboratory strain 24433. Description: Disc diffusion assay, CEE vs gentamicin. The following applies: C. albicans laboratory strain 24433; 50 mg anhydrous topical cream with 28% by weight agent; gentamicin 10 μg disc. The procedure:
as §1

For experiment [3], the system named is Enterococcus faecalis laboratory strain 29212. Description: Disc diffusion assay, CEE vs gentamicin. As to conditions: E. faecalis laboratory strain 29212; 50 mg anhydrous topical cream with 28% by weight agent; gentamicin 10 μg disc. Here is the method:
as §1

Experiment [4] deals with Enterococcus faecium vancomycin resistant (VRE). Description: Disc diffusion assay, CEE vs gentamicin. The following applies: E. faecium VRE; 50 mg anhydrous topical cream with 28% by weight agent; gentamicin 10 μg disc. Here is the method: as §1
The subject of experiment [5] is Escherichia coli laboratory strain 35150. Briefly: Disc diffusion assay, CEE vs gentamicin. As to conditions: E. coli laboratory strain 35150; 50 mg anhydrous topical cream with 28% by weight agent; gentamicin 10 μg disc. Here is the method:
as §1

Experiment [6] concerns Pseudomonas aeruginosa high level resistance (HLR). Description: Disc diffusion assay, CEE vs gentamicin. The following applies: P. aeruginosa HLR; 50 mg anhydrous topical cream with 28% by weight agent; gentamicin 10 μg disc. Here is the method: as §1
Experiment [7] concerns Pseudomonas aeruginosa laboratory strain 27853. Description: Disc diffusion assay, CEE vs gentamicin. The following applies: P. aeruginosa laboratory strain 27853; 50 mg anhydrous topical cream with 28% by weight agent; gentamicin 10 μg disc. The procedure: as §1
Experiment [8] relates to Staphylococcus aureus laboratory strain 29213. Briefly: Disc diffusion assay, CEE vs gentamicin. The following applies: S. aureus laboratory strain 29213; 50 mg anhydrous topical cream with 28% by weight agent; gentamicin 10 μg disc. Here is the method:
as §1

Experiment [9] has as its system Staphylococcus aureus methicillin resistant (MRSA). Description: Disc diffusion assay, CEE vs gentamicin. The following applies: S. aureus MRSA; 50 mg anhydrous topical cream with 28% by weight agent; gentamicin 10 μg disc. Here is the method: as §1
Experiment [10] deals with Escherichia coli beta lactamase producer (ESBL). The following applies: E. coli ESBL; 50 mg anhydrous topical cream with 28% by weight agent; gentamicin 10 μg disc. Here is the method:
as §1

Regarding `CN(CC(=O)OCc1ccccc1)C(=N)N` [Benzyl], the “Zone of Inhibition” value in the experiment with S. aureus is 23 mm.
Consider `CCCCCCCCOC(=O)CN(C)C(=N)N` [Octyl], for which, in the experiment on S. aureus, the “Zone of Inhibition” value is recorded as 27 mm.
For `CC(=O)O` [acetate], the “antibacterial activity after acid activation (FIG. 1)” value (from here on “antibacterial activity … (FIG. 1)”) in the experiment on Staphylococcus aureus is reported as “significant activity”; in the experiment with Staphylococcus aureus (listed as creatinine activated with acetic acid), “substantially greater antibacterial activity than creatinine activated with nitric or hydrochloric acid”.
On to `CC(=O)O` [acetic acid, reference compound], for which the “antibacterial activity of acid in Eridex alone” value with Staphylococcus aureus is reported as “no antibacterial activity”.
Turning to `O=C(O)CC(O)(CC(=O)O)C(=O)O` [citric acid, reference compound], in the experiment with Staphylococcus aureus, the “antibacterial activity of acid in Eridex alone” value is reported as “no antibacterial activity”.
On to Gentamicin [Gn, reference compound], for which the “Zone of Inhibition” value in experiment [1] was 6 mm; in experiment [2] it was 8 mm; in [3], 14 mm; in [4], 8 mm; in [5], 21 mm; in [6], 8 mm. Moreover, the “Zone of Inhibition” value in [7] came out at 21 mm; in experiment [8] it was 24 mm; in experiment [9], 7 mm; in [10], 24 mm.
Turning to citrate, in the experiment with Staphylococcus aureus, the “antibacterial activity … (FIG. 1)” value is “significant activity”.
For the compound fumaric, the “antibacterial activity … (FIG. 1)” value with Staphylococcus aureus is “little to no antibacterial activity”.
On to sulfuric, for which the “antibacterial activity … (FIG. 1)” value with Staphylococcus aureus is “little to no antibacterial activity”.
